# Values quoted from earlier work in patent US5942547A, “2-Deoxystreptamine derivatives, pharmaceutical compositions thereof and therapeutic methods using same” (priority 1996, dated 1999).
# Test system: REV/RRE interaction
structure (smiles),measurement,value
NC[C@@H]1O[C@H](O[C@H]2[C@@H](O)[C@H](O[C@@H]3[C@@H](O)[C@H](N)C[C@H](N)[C@H]3O[C@H]3O[C@H](CN)[C@@H](O)[C@H](O)[C@H]3N)O[C@@H]2CO)[C@H](N)[C@@H](O)[C@@H]1O [neomycin B],disruption of the REV/RRE interaction (in words),could disrupt the REV/RRE interaction
